Data set [1] relates to CCRF-CEM. As to the kind of experiment: Cytotoxicity against CEM cells. Type of data set: functional, Homo sapiens.
For data set [2], the system named is CCRF-CEM. Briefly: Compound was evaluated for its ability to inhibit the replication of HIV-1 virus by 50% in cell culture using XTT endpoint. The format is functional. The note with it: Homo sapiens, read-out: ED50 (the source's name).
Data set [3] addresses Human immunodeficiency virus type 1 protease (Human immunodeficiency virus 1, UniProt Q72874). As to the kind of experiment: Inhibition of HIV protease cleavage of V-S-Q-N-(b-naphthylalanine)-P-I-V.
In data set [4] the test system is CCRF-CEM. As to the kind of experiment: Compound was evaluated for its ability to inhibit the replication of HIV-2 virus (strain CBL-20) by 50% in cell culture using XTT endpoint. The format is functional. The note with it: Homo sapiens, read-out: ED50 (the source's name). On the technique in general: Tetrazolium dyes change colour on reduction, which living cells bring about.

Data set [5] in a line: Half-life period by analytical HPLC at pH 7.2. The format is ADME.

For the compound `C[C@H](O)C(C)(C)OC(=O)N[C@@H](Cc1ccccc1)[C@H](O)CNC[C@@H](O)[C@H](Cc1ccccc1)NC(=O)OC(C)(C)C`, the Cytotoxicity with CCRF-CEM [1] was more than 10 µM. The EC50 in the data set on CCRF-CEM [2] was found to be 35 nM. For the same compound, half-maximal inhibition in data set [3] (IC50) was put at 105 nM.

On to `CC(C)(C)OC(=O)N[C@@H](Cc1ccccc1)[C@H](O)CNC[C@@H](O)[C@H](Cc1ccccc1)NC(=O)OC(C)(C)CNC=O`, for which the Cytotoxicity result with CCRF-CEM [1] is “>=10000 nM”. Further, in the data set with CCRF-CEM [2], the EC50 stood at 610 nM. Besides, the midpoint of inhibition in data set [3], the IC50, lay at 1500 nM.

As for `CC(C)(C)OC(=O)N[C@@H](Cc1ccccc1)[C@H](O)CNC[C@@H](O)[C@H](Cc1ccccc1)NC(=O)OC(C)(C)CCCO`, the Cytotoxicity entry with CCRF-CEM [1] is reported as “>=10000 nM”. In addition, in the data set on CCRF-CEM [2], the EC50 is 650 nM. In data set [3], half-maximal inhibition (IC50) required 1100 nM.

Turning to `CC(C)(C)OC(=O)N[C@@H](Cc1ccccc1)[C@H](O)CNC[C@@H](O)[C@H](Cc1ccccc1)NC(=O)OC(C)(C)CO`, the Cytotoxicity result in the data set with CCRF-CEM [1] was “>=10000 nM”. The EC50 with CCRF-CEM [4] worked out at 103 nM; in the data set with CCRF-CEM [2], 38 nM. Further, in data set [3], the half-maximal inhibitory concentration (IC50) – broadly, the midpoint of a concentration-inhibition curve – worked out at 35 nM.

As for `CC(C)(C)OC(=O)N[C@@H](Cc1ccccc1)[C@H](O)CNC[C@@H](O)[C@H](Cc1ccccc1)NC(=O)OC1(CO)CCC1`, the Cytotoxicity in the data set with CCRF-CEM [1] is more than 10 µM. Also, the EC50 in the data set on CCRF-CEM [2] was 155 nM. In addition, the IC50 in data set [3] stood at 100 nM.

On to `CC(C)(C)OC(=O)N[C@@H](Cc1ccccc1)[C@H](O)CNC[C@@H](O)[C@H](Cc1ccccc1)NC(=O)OC(C)(C)C`, for which the Cytotoxicity entry in the data set on CCRF-CEM [1] is given as “>=10000 nM”. Also, the EC50 in the data set with CCRF-CEM [2] came to 80 nM.

On to `CC(C)(C)OC(=O)N[C@@H](Cc1ccccc1)[C@H](O)CNC[C@@H](O)[C@H](Cc1ccccc1)NC(=O)OC(C)(CO)CO`, for which, in data set [5], the half-life (commonly the time needed for the level to fall by half in the phase considered) was 18 h. For the same compound, the Cytotoxicity in the data set on CCRF-CEM [1] was more than 10 µM. For the same compound, the IC50 in data set [3] was 200 nM.

`CC(C)(CO)OC(=O)N[C@@H](Cc1ccccc1)[C@H](O)CNC[C@@H](O)[C@H](Cc1ccccc1)NC(=O)OC(C)(C)CO` came in with a Cytotoxicity with CCRF-CEM [1] of more than 10 µM. In addition, the EC50 in the data set on CCRF-CEM [2] was found to be 843 nM. Besides, the IC50 in data set [3] amounted to 16 nM.

As to `CC(C)(C)OC(=O)N[C@@H](Cc1ccccc1)[C@H](O)CNC[C@@H](O)[C@H](Cc1ccccc1)NC(=O)OCCO`, in the data set with CCRF-CEM [1], the Cytotoxicity was more than 10 µM. Moreover, the EC50 with CCRF-CEM [2] worked out at 280 nM. Further, the IC50 in data set [3] turned out to be 230 nM.

In turn, `C[C@@H](O)C(C)(C)OC(=O)N[C@@H](Cc1ccccc1)[C@H](O)CNC[C@@H](O)[C@H](Cc1ccccc1)NC(=O)OC(C)(C)C` came in with a Cytotoxicity with CCRF-CEM [1] of more than 10 µM. Also, in the data set on CCRF-CEM [2], the EC50 came to 320 nM. The same compound registered an IC50 in data set [3] of 160 nM.

Take `COCC(C)(C)OC(=O)N[C@@H](Cc1ccccc1)[C@H](O)CNC[C@@H](O)[C@H](Cc1ccccc1)NC(=O)OC(C)(C)C`: the Cytotoxicity entry in the data set on CCRF-CEM [1] is listed as “>=10000 nM”. Besides, in the data set with CCRF-CEM [2], the EC50 was found to be 1040 nM. Moreover, the midpoint of inhibition in data set [3], the IC50, lay at 420 nM.

Regarding `CC(C)(C)OC(=O)N[C@@H](Cc1ccccc1)[C@H](O)CNC[C@@H](O)[C@H](Cc1ccccc1)NC(=O)OC(C)(C)CCO`, in the data set with CCRF-CEM [1], the Cytotoxicity result is “>=10000 nM”. Further, the EC50 in the data set with CCRF-CEM [2] came out at 175 nM. The IC50 in data set [3] is 200 nM.

The compound `CC(C)(C)OC(=O)N[C@@H](Cc1ccccc1)[C@H](O)CNC[C@@H](O)[C@@H](N)Cc1ccccc1` returned an IC50 in data set [3] of more than 10000 nM.

Turning to `CC(C)(C)OC(=O)N[C@@H](Cc1ccccc1)[C@H](O)CNC[C@@H](O)[C@H](Cc1ccccc1)NC(=O)OC(C)(C)CN`, the IC50 in data set [3] is more than 10000 nM.

(Values after ChEMBL document CHEMBL1128839, “Aminodiol HIV protease inhibitors. 2. 1,1-Dimethyl-2-hydroxyethyl carbamate derivatives with enhanced potency” (Bioorg Med Chem Lett, 1995).)
